Data from paper PMC3200115, “Peptide Inhibition of Topoisomerase IB from Plasmodium falciparum” (Molecular Biology International, 2011).
Bridges are numbered along the chain shown (N, C = ends). Where no end group is shown, it is not given here.

Columns and labels:
DNA = experiment: Unspecific DNA binding; conditions: confirmed in the present study, data not shown
bacteriophage λ-Int = conditions: ref [39], [40]; cited from earlier work
[1] = test system: P. falciparum topoisomerase I (pfTopoI); experiment: Plasmid (pBR322) DNA relaxation by pfTopoI; assay type: biochemical, Plasmodium falciparum; conditions: peptide 1.3 to 50 μM; even at concentrations up to 50 μM; 30 min, 37°C
[2] = test system: type IB Topo of Vaccinia virus (vvTopoI); conditions: cited from earlier work; for step of catalysis inhibited (vvTopoI): DNA relaxation by vvTopoI; for step of catalysis inhibited (vvTopoI) / inhibition of vvTopoI relaxation activity: ref [39], [40]; for activity against vvTopoI: from rescreening of peptide combinatorial library against vvTopoI, ref [40]

Substance	DNA binding capacity (DNA)	step of catalysis inhibited (λ-Int) (bacteriophage λ-Int)	effect on relaxation activity of pfTopoI [1]	step of catalysis inhibited (vvTopoI) [2]	activity against vvTopoI [2]	inhibition of vvTopoI relaxation activity [2]
KCCRCK (disulfide (positions not given here)) [synthetic hexapeptide purchased from GenScript]	unspecific DNA binding capacity	specific inhibition of the cleavage and not the ligation step of catalysis	no effect	specific inhibition of the cleavage and not the ligation step of catalysis	high activity	inhibited the relaxation activity of vvTopoI
WYCRCK (disulfide 3-5 (inferred)) [synthetic hexapeptide purchased from GenScript]	unspecific DNA binding capacity	specific inhibition of the cleavage and not the ligation step of catalysis	no effect	specific inhibition of the cleavage and not the ligation step of catalysis	high activity	inhibited the relaxation activity of vvTopoI
